Key:
PI3Kb (p110β/p85α) = PI3Kb (p110β/p85α) (Homo sapiens (Human), UniProt P42338); experiment: Lipid kinase selectivity panel (Reaction Biology); assay type: biochemical; conditions: 1 μM compound, single dose duplicates, 10 μM ATP; read-out: Percent inhibition relative to DMSO control, PI3Kb (p110β/p85α)
Description: (§1) The compounds of the present invention were tested in a standard lipid kinase selectivity panel: 16 other lipid kinases (Reaction Biology, Malvern, PA, USA), under conditions of non-disclosure, non-dissemination, and non-use. In brief, compounds (see Table 2) were tested at in single dose duplicates at 1 μM against lipid kinases, including PI3Kα, PI3Kβ, and PI3Kδ, and reactions were carried out at 10 μM ATP.

[1] = target: PI3K (p110α (H1047R)/p85α) (Homo sapiens (Human), UniProt P42336, H1047R); experiment: Lipid kinase selectivity panel (Reaction Biology); assay type: biochemical; conditions: 1 μM compound, single dose duplicates, 10 μM ATP; read-out: Percent inhibition relative to DMSO control, PI3K (p110α (H1047R)/p85α)
Chain of PI3K (p110α (H1047R)/p85α) (P42336 whole entry H1047R): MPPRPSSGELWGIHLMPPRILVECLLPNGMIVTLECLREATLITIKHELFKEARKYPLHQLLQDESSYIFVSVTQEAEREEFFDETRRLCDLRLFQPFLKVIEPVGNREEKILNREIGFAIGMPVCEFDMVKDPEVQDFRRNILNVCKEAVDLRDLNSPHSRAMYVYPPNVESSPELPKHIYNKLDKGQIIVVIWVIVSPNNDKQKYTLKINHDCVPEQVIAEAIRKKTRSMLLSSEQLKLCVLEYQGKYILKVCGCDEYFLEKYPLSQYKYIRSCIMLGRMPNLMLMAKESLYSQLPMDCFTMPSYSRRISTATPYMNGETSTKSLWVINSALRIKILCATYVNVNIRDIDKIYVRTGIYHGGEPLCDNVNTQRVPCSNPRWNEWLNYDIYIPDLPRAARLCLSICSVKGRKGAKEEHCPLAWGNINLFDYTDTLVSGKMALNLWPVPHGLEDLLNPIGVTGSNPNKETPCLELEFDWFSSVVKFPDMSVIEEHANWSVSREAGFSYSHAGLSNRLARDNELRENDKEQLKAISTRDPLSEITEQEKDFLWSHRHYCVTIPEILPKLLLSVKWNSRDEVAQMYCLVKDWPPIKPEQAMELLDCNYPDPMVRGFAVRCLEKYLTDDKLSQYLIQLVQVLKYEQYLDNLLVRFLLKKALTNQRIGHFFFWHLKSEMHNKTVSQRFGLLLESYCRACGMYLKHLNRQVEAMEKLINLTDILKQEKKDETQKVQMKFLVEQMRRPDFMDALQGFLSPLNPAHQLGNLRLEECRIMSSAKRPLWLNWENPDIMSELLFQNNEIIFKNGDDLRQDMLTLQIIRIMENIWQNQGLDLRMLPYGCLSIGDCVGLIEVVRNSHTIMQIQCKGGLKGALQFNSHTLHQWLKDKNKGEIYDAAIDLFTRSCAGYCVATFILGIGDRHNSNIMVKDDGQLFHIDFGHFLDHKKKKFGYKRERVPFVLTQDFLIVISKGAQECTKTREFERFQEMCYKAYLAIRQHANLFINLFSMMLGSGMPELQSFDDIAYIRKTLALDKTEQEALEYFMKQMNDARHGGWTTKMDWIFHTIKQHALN
Chain of PI3K (p110α (H1047R)/p85α) (P27986 whole entry partner): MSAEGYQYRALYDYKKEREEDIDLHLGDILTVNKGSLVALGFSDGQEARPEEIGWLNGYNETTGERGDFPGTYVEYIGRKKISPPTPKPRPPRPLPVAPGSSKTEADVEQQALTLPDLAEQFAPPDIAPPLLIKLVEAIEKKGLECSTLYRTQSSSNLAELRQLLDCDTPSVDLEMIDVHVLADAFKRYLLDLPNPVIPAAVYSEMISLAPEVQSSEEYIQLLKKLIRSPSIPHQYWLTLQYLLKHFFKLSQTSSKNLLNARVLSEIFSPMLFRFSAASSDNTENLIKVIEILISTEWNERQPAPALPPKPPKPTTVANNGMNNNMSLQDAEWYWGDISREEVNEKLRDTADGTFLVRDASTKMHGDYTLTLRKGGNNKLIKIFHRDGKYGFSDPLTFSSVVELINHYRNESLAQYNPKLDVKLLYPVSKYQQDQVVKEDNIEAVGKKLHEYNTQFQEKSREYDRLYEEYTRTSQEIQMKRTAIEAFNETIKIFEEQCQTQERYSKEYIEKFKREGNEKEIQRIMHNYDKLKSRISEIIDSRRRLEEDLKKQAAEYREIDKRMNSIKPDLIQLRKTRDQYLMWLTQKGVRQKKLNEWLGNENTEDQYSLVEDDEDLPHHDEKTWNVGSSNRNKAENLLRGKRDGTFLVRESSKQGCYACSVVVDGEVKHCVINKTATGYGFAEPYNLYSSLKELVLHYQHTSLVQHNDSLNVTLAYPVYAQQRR
Description: as §1

PI3Kd (p110δ/p85α) = PI3Kd (p110δ/p85α) (Homo sapiens (Human), UniProt O00329); experiment: Lipid kinase selectivity panel (Reaction Biology); assay type: biochemical; conditions: 1 μM compound, single dose duplicates, 10 μM ATP; read-out: Percent inhibition relative to DMSO control, PI3Kd (p110δ/p85α)
Description: as §1

[2] = target: PI3K (p110α (E542K)/p85α) (Homo sapiens (Human), UniProt P42336, E542K); experiment: Lipid kinase selectivity panel (Reaction Biology); assay type: biochemical; conditions: 1 μM compound, single dose duplicates, 10 μM ATP; read-out: Percent inhibition relative to DMSO control, PI3K (p110α (E542K)/p85α)
Chain of PI3K (p110α (E542K)/p85α) (P42336 whole entry E542K): as the sequence (P42336 whole entry H1047R) above, with E542K, R1047H counted along it
Chain of PI3K (p110α (E542K)/p85α) (P27986 whole entry partner): as the sequence (P27986 whole entry partner) above
Description: as §1

PI3Kα (p110α/p85α) = PI3Kα (p110α/p85α) (Homo sapiens (Human), UniProt P42336); experiment: Lipid kinase selectivity panel (Reaction Biology); assay type: biochemical; conditions: 1 μM compound, single dose duplicates, 10 μM ATP; read-out: Percent inhibition relative to DMSO control, PI3Kα (p110α/p85α)
Chain of PI3Kα (p110α/p85α) (P42336 whole entry, species assumed): as the sequence (P42336 whole entry H1047R) above, with R1047H counted along it
Chain of PI3Kα (p110α/p85α) (P27986 whole entry partner, species assumed): as the sequence (P27986 whole entry partner) above
Description: as §1

[3] = target: PI3K (p110α (E545K)/p85α) (Homo sapiens (Human), UniProt P42336, E545K); experiment: Lipid kinase selectivity panel (Reaction Biology); assay type: biochemical; conditions: 1 μM compound, single dose duplicates, 10 μM ATP; read-out: Percent inhibition relative to DMSO control, PI3K (p110α (E545K)/p85α)
Chain of PI3K (p110α (E545K)/p85α) (P42336 whole entry E545K): as the sequence (P42336 whole entry H1047R) above, with E545K, R1047H counted along it
Chain of PI3K (p110α (E545K)/p85α) (P27986 whole entry partner): as the sequence (P27986 whole entry partner) above
Description: as §1

PI3Kg (p110γ) = PI3Kg (p110γ) (Homo sapiens (Human), UniProt P48736); experiment: Lipid kinase selectivity panel (Reaction Biology); assay type: biochemical; conditions: 1 μM compound, single dose duplicates, 10 μM ATP; read-out: Percent inhibition relative to DMSO control, PI3Kg (p110γ)
Description: as §1

PI3K (p110α/p65α) = PI3K (p110α/p65α) (Homo sapiens (Human), UniProt P42336); experiment: Lipid kinase selectivity panel (Reaction Biology); assay type: biochemical; conditions: 1 μM compound, single dose duplicates, 10 μM ATP; read-out: Percent inhibition relative to DMSO control, PI3K (p110α/p65α)
Chain of PI3K (p110α/p65α) (P42336 whole entry, species assumed): as the sequence (P42336 whole entry H1047R) above, with R1047H counted along it
Description: as §1

PI3KC2α = PI3KC2α (Homo sapiens (Human), UniProt O00443); experiment: Lipid kinase selectivity panel (Reaction Biology); assay type: biochemical; conditions: 1 μM compound, single dose duplicates, 10 μM ATP; read-out: Percent inhibition relative to DMSO control, PI3KC2α
Description: as §1

VPS34 = VPS34 (Homo sapiens (Human), UniProt Q8NEB9); experiment: Biochemical Assay for VPS34 (ADP-Glo kinase activity assay); conditions: 25 nM VPS34, 1 mM ATP, 1-hour incubation at 37° C.; read-out: VPS34 (Inhibition of biochemical activity of VPS34, IC50)
Chain of VPS34 (Q8NEB9 other isoform, or with tags, fused parts or gaps): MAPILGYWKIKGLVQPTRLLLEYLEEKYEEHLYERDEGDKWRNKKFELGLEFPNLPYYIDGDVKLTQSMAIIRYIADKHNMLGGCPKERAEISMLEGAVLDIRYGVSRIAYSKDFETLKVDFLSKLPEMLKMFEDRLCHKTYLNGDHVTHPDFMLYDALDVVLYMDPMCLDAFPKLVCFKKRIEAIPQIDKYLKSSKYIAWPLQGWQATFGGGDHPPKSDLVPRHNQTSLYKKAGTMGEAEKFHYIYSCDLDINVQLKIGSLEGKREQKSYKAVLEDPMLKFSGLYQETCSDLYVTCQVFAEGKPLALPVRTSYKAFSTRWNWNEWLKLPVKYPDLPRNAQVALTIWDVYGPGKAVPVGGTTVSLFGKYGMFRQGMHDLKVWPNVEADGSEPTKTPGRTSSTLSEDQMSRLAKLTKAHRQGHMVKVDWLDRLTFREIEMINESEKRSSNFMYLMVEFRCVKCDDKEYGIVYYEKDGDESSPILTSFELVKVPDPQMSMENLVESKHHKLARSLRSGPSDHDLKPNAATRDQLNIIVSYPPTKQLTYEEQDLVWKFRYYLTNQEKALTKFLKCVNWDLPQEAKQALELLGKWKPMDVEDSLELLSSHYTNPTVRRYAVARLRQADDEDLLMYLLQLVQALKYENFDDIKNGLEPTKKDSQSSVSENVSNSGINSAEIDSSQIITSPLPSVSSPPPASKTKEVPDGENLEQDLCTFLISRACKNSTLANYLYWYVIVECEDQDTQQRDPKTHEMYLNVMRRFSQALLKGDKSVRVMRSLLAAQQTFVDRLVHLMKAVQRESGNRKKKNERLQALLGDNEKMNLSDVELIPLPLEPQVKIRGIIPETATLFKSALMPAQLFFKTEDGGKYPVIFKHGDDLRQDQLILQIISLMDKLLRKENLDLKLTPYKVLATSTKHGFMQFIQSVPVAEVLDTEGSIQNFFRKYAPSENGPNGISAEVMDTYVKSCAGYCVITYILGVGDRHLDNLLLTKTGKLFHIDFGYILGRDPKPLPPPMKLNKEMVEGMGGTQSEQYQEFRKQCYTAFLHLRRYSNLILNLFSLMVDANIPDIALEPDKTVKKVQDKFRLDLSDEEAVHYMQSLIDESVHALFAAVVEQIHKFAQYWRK
Description: Activity of VPS34 kinase was determined using an ADP-Glo kinase activity assay (Promega Corp). Assays were conducted in 384-well plates (5 μL assay volume) using 25 nM VPS34 (ThermoFisher Scientific), […] PI:3PS Lipid Kinase Substrate (Promega Corp.), and 1 mM ATP in kinase buffer. Inhibition of VPS34 was measured by adding serial diluted test compound (final assay concentration of 0.1% DMSO) followed by a 1-hour incubation at 37° C. ADP-Glo reagent was then added ([…]) followed by a 40 min incubation at rt. Kinase detection reagent was then added ([…]) and followed by a 60 min incubation at rt. Luminescence was then detected. The RLU at each compound concentration of was converted to percent inhibition using controls (i.e., reaction with no test compound and reaction with a known inhibitor) and IC50 values were calculated by fitting a four-parameter sigmoidal curve to the data using GeneData Screener software.
VPS34 Protein Sequence (Full Length with GST Tag)

Chain of PI3Kb (p110β/p85α) (P42338 whole entry, species assumed): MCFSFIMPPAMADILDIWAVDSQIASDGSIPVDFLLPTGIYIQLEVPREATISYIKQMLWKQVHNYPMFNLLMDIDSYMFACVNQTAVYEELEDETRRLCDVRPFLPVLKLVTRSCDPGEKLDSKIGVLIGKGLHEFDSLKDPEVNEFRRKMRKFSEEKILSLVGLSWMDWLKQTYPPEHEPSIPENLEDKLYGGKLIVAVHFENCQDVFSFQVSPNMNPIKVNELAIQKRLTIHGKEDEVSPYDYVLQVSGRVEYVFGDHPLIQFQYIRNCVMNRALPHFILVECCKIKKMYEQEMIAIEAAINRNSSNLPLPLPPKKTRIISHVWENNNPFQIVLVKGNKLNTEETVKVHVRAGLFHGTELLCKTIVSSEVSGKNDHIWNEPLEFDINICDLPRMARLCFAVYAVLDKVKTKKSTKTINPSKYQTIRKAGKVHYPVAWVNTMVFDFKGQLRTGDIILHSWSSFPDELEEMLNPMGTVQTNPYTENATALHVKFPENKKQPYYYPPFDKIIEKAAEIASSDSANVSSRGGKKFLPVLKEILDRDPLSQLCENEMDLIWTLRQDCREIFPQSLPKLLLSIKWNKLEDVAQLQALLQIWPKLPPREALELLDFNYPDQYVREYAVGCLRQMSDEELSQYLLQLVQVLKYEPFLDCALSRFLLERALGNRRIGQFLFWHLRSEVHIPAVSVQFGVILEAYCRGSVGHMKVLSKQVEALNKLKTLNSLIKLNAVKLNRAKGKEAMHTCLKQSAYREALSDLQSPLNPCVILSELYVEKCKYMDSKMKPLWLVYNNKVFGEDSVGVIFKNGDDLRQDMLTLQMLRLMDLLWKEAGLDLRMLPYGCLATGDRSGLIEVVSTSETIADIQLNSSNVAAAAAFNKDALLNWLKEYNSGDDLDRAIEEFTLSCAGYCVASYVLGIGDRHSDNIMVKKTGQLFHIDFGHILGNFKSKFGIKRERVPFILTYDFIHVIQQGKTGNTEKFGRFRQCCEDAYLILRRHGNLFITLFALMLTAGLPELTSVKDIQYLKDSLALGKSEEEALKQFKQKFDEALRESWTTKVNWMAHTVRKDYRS
Chain of PI3Kb (p110β/p85α) (P27986 whole entry partner, species assumed): as the sequence (P27986 whole entry partner) above

Structure (SMILES) | inhibition at 1 µM (PI3Kb (p110β/p85α)) [%] | inhibition at 1 µM [1] [%] | inhibition at 1 µM (PI3Kd (p110δ/p85α)) [%] | inhibition at 1 µM [2] [%] | inhibition at 1 µM (PI3Kα (p110α/p85α)) [%] | inhibition at 1 µM [3] [%] | inhibition at 1 µM (PI3Kg (p110γ)) [%] | inhibition at 1 µM (PI3K (p110α/p65α)) [%] | inhibition at 1 µM (PI3KC2α) [%] | IC50 (VPS34) [µM]
COC(=O)Nc1cc(-c2cc(N3CCCC[C@@H]3C(F)(F)F)[nH]c(=O)c2)c(C)cn1 [Example 1, methyl (R)-(5-methyl-2′-oxo-6′-(2-(trifluoromethyl)piperidin-1-yl)-1′,2′-dihydro-[4,4′-bipyridin]-2-yl)carbamate] | 13 | 10 | 9 | 4 | 22 | 15 | 12 | 5 | -1 | ≤ 0.1
COC(=O)Nc1cc(-c2cc(N3CCCC[C@@H]3C(F)(F)F)[nH]c(=O)c2)c(CF)cn1 [Example 18] | -3 | 16 | 13 | -1 | -5 | 2 | -13 | -2 | -18 | 0.1 to 0.5
COC(=O)Nc1cc(-c2cc(-c3cccnc3C(F)(F)F)[nH]c(=O)c2)c(C)cn1 [Example 78] | 14 | 8 | 10 | 14 | 20 | 12 | 30 | 15 | -3 | 0.1 to 0.5
COC(=O)Nc1cc(-c2cc(N3CCCC[C@@H]3C)[nH]c(=O)c2)c(C)cn1 [Example 20] | -9 | -11 | -4 | -5 | -2 | -3 | -10 | -11 | 5 | 0.1 to 0.5
Cc1cnc(NC(=O)CC2CNC2)cc1-c1cc(N2CCCC[C@@H]2C(F)(F)F)[nH]c(=O)c1 [Example 27] | -1 | -11 | 2 | 1 | 4 | 1 | -8 | 7 | 0 | 0.1 to 0.5
Cc1nccc(Nc2cc(-c3cc(N4CCCC[C@@H]4C(F)(F)F)[nH]c(=O)c3)c(C)cn2)n1 [Example 77] | 11 | 22 | 17 | 33 | 30 | 28 | 65 | 24 | 2 | ≤ 0.1
Cc1cnc(NC(=O)C2CC2)cc1-c1cc(N2CCCC[C@@H]2C(F)(F)F)[nH]c(=O)c1 [Example 17] | -10 | 6 | 14 | -3 | -15 | -5 | 7 | -17 | -21 | ≤ 0.1
COC(=O)Nc1cc(-c2cc(N3CCCC[C@@H]3C(F)(F)F)[nH]c(=O)c2)c(N)cn1 [Example 14] | -9 | 0 | -2 | -5 | -3 | 3 | 11 | -7 | -1 | ≤ 0.1
Cc1cnc(NC(=O)CCN(C)C)cc1-c1cc(N2CCCC[C@@H]2C(F)(F)F)[nH]c(=O)c1 [Example 25] | -7 | -7 | -7 | 1 | 4 | -1 | -4 | 0 | -5 | 0.1 to 0.5
O=C(Nc1cc(-c2cc(N3CCCC[C@@H]3C(F)(F)F)[nH]c(=O)c2)c(Cl)cn1)C1CC1 [Example 16] | -5 | 14 | -2 | -2 | -24 | -8 | 29 | -24 | -11 | 0.1 to 0.5
CNC(=O)Nc1cc(-c2cc(N3CCCC[C@@H]3C(F)(F)F)[nH]c(=O)c2)c(C)cn1 [Example 10] | -12 | -3 | 1 | 0 | -3 | 3 | -16 | -23 | 0 | 0.1 to 0.5
CNCC(=O)Nc1cc(-c2cc(N3CCCC[C@@H]3C(F)(F)F)[nH]c(=O)c2)c(C)cn1 [Example 24] | -9 | -17 | -9 | -4 | -1 | -2 | -7 | -6 | 2 | 0.1 to 0.5
COC(=O)Nc1ncc(C)c(-c2cc(-c3cccnc3C(F)(F)F)[nH]c(=O)c2)n1 [Example 6] | -14 | 19 | -2 | 4 | -2 | 3 | 5 | -26 | -3 | 0.5 to 1
Cc1cnc(NC(=O)CCN2CCCC2)cc1-c1cc(N2CCCC[C@@H]2C(F)(F)F)[nH]c(=O)c1 [Example 26] | -10 | -8 | -5 | -2 | -2 | -1 | -5 | -4 | 4 | 0.1 to 0.5
COC(=O)Nc1cc(-c2cc(-c3cccnc3C(F)(F)F)[nH]c(=O)c2)c(F)cn1 [Example 5] | -6 | 35 | 58 | 32 | 17 | 32 | 23 | 15 | 3 | 0.1 to 0.5
Cc1cnc(Nc2cnn(C)c2)cc1-c1cc(N2CCCC[C@@H]2C(F)(F)F)[nH]c(=O)c1 [Example 29] | – | – | – | – | – | – | – | – | – | 0.5 to 1
Cc1cnc(NC(=O)OC2CNC2)cc1-c1cc(N2CCCC[C@@H]2C(F)(F)F)[nH]c(=O)c1 [Example 54] | – | – | – | – | – | – | – | – | – | 1 to 10
Cc1cnc(NC(=O)C2CC2)cc1-c1cc(N2CCN(C(=O)c3cccnc3)C[C@@H]2C)[nH]c(=O)c1 [Example 94] | – | – | – | – | – | – | – | – | – | 1 to 10
Cc1ccc(Nc2cc(-c3cc(N4CCCC[C@@H]4C(F)(F)F)[nH]c(=O)c3)c(C)cn2)nn1 [Example 44] | – | – | – | – | – | – | – | – | – | ≤ 0.1
